In patent US10085963B2, “Process and compositions for achieving mammalian energy balance” (SAMI LABS LIMITED, priority 2015, dated 2018):

Columns and labels:
[1] = test system: mammalian pre-adipocytes / adipocytes; test: Adipogenesis inhibition, Oil Red O staining; format: cell-based
Procedure: […] C.) of 5% CO2 and 95% air; • f) Fixing, the cells of step e by adding 100 μl of 10% formalin and staining using the Oil Red O technique; • g) Reading the optical density of cells of step f at 492 nm in a microplate reader and expressing the results as inhibitory concentration (IC50) values using the graph pad prism software; • h) Calculating the percentage inhibition of adipogenesis in the cells of steps f and g using the formula, C-T/T×100, wherein C is the absorbance of Oil Red O in differentiating/undifferentiated cells and T is the absorbance of Oil Red O in sample treated differentiating/undifferentiated cells. • i) Adding 200 μl of freshly prepared Adipogenesis induction medium to the wells of step a. • j) Adding 200 μl of freshly prepared Adipogenesis progression medium comprising graded concentrations of forskolin (50 μg/ml and 100 μg/ml respectively) to the wells of step i after 72 hours of incubation with the Adipogenesis induction medium; • k) Incubating the cells treated with forskolin (step j), adipogenesis induction medium (step i) and adipogenesis progression medium (step j) for 48 hours in a humidified atmosphere (37 deg. C.) of 5% (CO2 and 95% air; • l) Fixing the cells of step 1 by adding 100 μl of 10% formal in and staining using the Oil Red O technique; • m) Reading the optical density of cells of step m at 492 nm in as microplate reader and expressing the results as inhibitory concentration (IC50) values using the graph pad prism software; • n) Calculating the percentage inhibition of adipogenesis in the cells of steps m and n using the formula, C-T/T×100, wherein C is the absorbance of Oil Red O in differentiating/undifferentiated cells and T is the absorbance of Oil Red O in sample treated differentiating/undifferentiated cells; and • o) Comparing percentage inhibition of adipogenesis in the cells of steps h and o.

[2] = administration in humans; cited from earlier work

C=C[C@@]1(C)CC(=O)[C@]2(O)[C@@]3(C)[C@@H](O)CCC(C)(C)[C@@H]3[C@H](O)[C@H](OC(C)=O)[C@@]2(C)O1 [forskolin]
inhibition at 6.25 µg/mL ([1]; Adipocyte, forskolin 6.25 μg/ml, read-out: % inhibition of adipogenesis when forskolin is added after differentiation of pre-adipocytes to the adipocyte stage): 1.2%
inhibition at 12.5 µg/mL ([1]; Adipocyte, forskolin 12.50 μg/ml, read-out: % inhibition of adipogenesis when forskolin is added after differentiation of pre-adipocytes to the adipocyte stage): 6.8%
inhibition at 25 µg/mL ([1]; Adipocyte, forskolin 25 μg/ml, read-out: % inhibition of adipogenesis when forskolin is added after differentiation of pre-adipocytes to the adipocyte stage): 10.6%
inhibition at 50 µg/mL ([1]; Adipocyte, forskolin 50 μg/ml, read-out: % inhibition of adipogenesis when forskolin is added after differentiation of pre-adipocytes to the adipocyte stage): 12.9%
inhibition at 100 µg/mL ([1]; Adipocyte, forskolin 100 μg/ml, read-out: % inhibition of adipogenesis when forskolin is added after differentiation of pre-adipocytes to the adipocyte stage): 18.5%
% inhibition of adipogenesis when forskolin is added at the pre-adipocyte stage (before differentiation into the adipocyte stage) ([1]; forskolin 6.25 μg/ml): 10.2%
% inhibition of adipogenesis when forskolin is added at the pre-adipocyte stage (before differentiation into the adipocyte stage) ([1]; forskolin 12.50 μg/ml): 12.8%
% inhibition of adipogenesis when forskolin is added at the pre-adipocyte stage (before differentiation into the adipocyte stage) ([1]; forskolin 25 μg/ml): 19.7%
% inhibition of adipogenesis when forskolin is added at the pre-adipocyte stage (before differentiation into the adipocyte stage) ([1]; forskolin 50 μg/ml): 35.5%
% inhibition of adipogenesis when forskolin is added at the pre-adipocyte stage (before differentiation into the adipocyte stage) ([1]; forskolin 100 μg/ml): 41.8%
clinically significant side effects [2]: does not cause clinically significant side effects
